Read-outs that look alike come from different tables or passages of the source.
Key:
[1] = Pharmacokinetics and brain distribution after single oral dose, mice; format: in vivo, male CD1 mice
Protocol: The pharmacokinetics and brain distribution in maleCD1 mice and Sprague-Dawley rats following a single oral (PO) dose was evaluated. The compound of formula (I) was administered once at 10 mg/kg to mice and at 1, 10, 30, and 100 mg/kg to rats. All doses, compound of formula (I) concentrations, and derived PK parameters are expressed as the free base of the compound of formula (I).
The in-life portion of these studies was performed by Alliance Pharma (Malvern, Pa.) according to Protocols 200107-02 (mice) and 1910158-02 (rats). Animals were assigned randomly to the dose groups and were fasted 12 hours prior to dosing. Water was available ad libitum. The compound of formula (I) (as an HCl salt) was given to male CD1 mice at 10 mg/kg single PO dose, while in Sprague-Dawley rats, the doses were 1, 10, 30, and 100 mg/kg. In both studies, the compound of formula (I) was formulated in 0.5% hydroxypropyl methylcellulose (HPMC)/0.2% Tween 80 and the dosing volume was 5 mL/kg for all dose groups.
Whole blood was collected at 2, 4, 6, and 12 hours post dose from mice and predose and 1, 2, 4, 8, 12, and 24 hours post dose from rats into tubes containing dipotassium ethylenediaminetetraacetic acid (K2EDTA). Blood was obtained from 3 mice and 4 rats per time-point per dose level. The blood samples were processed into plasma analyzed at Alliance Pharma using the method as described below.
The brain tissue was collected from mice at 2, 4, 6, and 12 hours post dose and was collected from rats at 6 hours post dose given 1, 10, 30, or 100 mg/kg of the compound of formula (I). Brain tissue was obtained from 3 mice per time-point at the 10 mg/kg dose level and 4 rats per dose level at the 6-hour post dose time-point.
Brain tissue was rinsed by phosphate-buffered saline (PBS) buffer immediately after harvest, weighed, and mixed with solvent (MeOH:H2O [volume over volume of 20:80]) with a ratio of tissue to solvent of 1:4 (weight over volume). […] After homogenization, the homogenate was aliquoted out for sample analysis.
The concentrations of the compound of formula (I) in the plasma and brain homogenate were determined versus a calibration curve prepared in plasma and naïve brain homogenate, respectively. Samples were deproteinized with acetonitrile containing tolbutamide as internal standard. After centrifugation, the supernatants were analyzed by liquid chromatography with tandem mass spectrometry (LC-MS/MS). Chromatography was performed with a Zorbax SB-C18 (50×2.1 mm, […]) column under gradient conditions described in Table 22. Mobile Phase A (0.1% formic acid [FA] in water) and Mobile Phase B (0.1% FA in acetonitrile) were delivered as a flow rate of 0.8 mL/min. LC-MS/MS was performed using a positive TurboIonSpray® interface on a SciexAPI 4000 and multiple-reaction monitoring (MRM) over a concentration range of 1 ng/mL to 1000 (rats) or 2000 (mice) ng/mL for the plasma and brain homogenate samples.
The mean plasma concentration-time data of the compound of formula (I) was used to determine the pharmacokineticparameters by standard noncompartmental methods using Phoenix® WinNonlin (version 8.2.0; Certara, Princeton, N.J.). Graphs were plotted in Prism® (version 2.3.0; GraphPad, San Diego, Calif.). Concentrations were rounded to 3 significant figures.

NCI-H460-luc = assay: CellTiter-Glo anti-proliferation assay, NCI-H460-luc; format: cell-based
Protocol: The anti-proliferation effect of 2 compounds (the compound of formula (I) and temozolomide) in 7 CNS metastasis cell lines (MOLT-4-luc, Nalm-6-luc, NCI-H460-luc, ACHN-luc2, PC-9-luc, H1975-luc, and KM12-luc) was evaluated.
The plating of cells and compound treatments are shown below in the plate map (Table 12). One plate was needed for the test of 2 compounds (the compound of formula (I) and temozolomide) in one cell line. The compound of formula (I) was tested from 10 μM, 3-fold serial dilution. Temozolomide was tested from 100 μM, 3-fold serial dilution.
All the cell lines were maintained in culture conditions at 37° C. in an atmosphere with 5% CO2 in air. The tumor cells were routinely subcultured. The cells growing in an exponential growth phase were harvested and counted for plating.
Cells were counted by haemocytometer with Trypan blue staining. Next, 135 μL of cell suspension were plated into the assay plates according to the plate map and 135 μL of assay medium into the blank wells. The plates were incubated at 37° C., 5% CO2, 95% air and 100% relative humidity overnight.
4.4.4 Compound Plate (10×) Preparation and Compound Treatment • 10× concentrate compound plate preparation: Add 198 μL of assay medium into each well of the V-bottom plate; then transfer 2 μL of the stock compound solution of each concentration from the stock plate. Add 2 μL of DMSO into the Blank and Control wells. Pipette up and down to mix well. This V-plate is designated as the 10× concentrate compound plate. • For day 0 plate, add 15 μL of the DMSO-medium into the Control wells. The final DMSO concentration was 0.1%. Then directly proceed to cell viability assay. • For assay plate, add 15 μL of the compound-medium of each well from the 10× concentrate compound plate into the cells in 96-well assay plate according to the plate map. Add 15 μL of the DMSO-medium into the Blank and Control wells. The final DMSO concentration was 0.1%. • Return the assay plate into incubator and incubate for 6 days.
The procedures were performed according to the Promega CellTiter-Glo Luminescent Cell Viability Assay Kit manual (Promega-G7573). • The CellTiter-Glo buffer was thawed and equilibrated to room temperature prior to use. • CellTiter-Glo Substrate was equilibrated to room temperature prior to use. • The entire liquid volume of CellTiter-Glo Buffer was transferred into the amber bottle containing CellTiter-Glo Substrate to reconstitute the lyophilized enzyme/substrate mixture. This forms the CellTiter-Glo Reagent. • The contents were mixed by gently vortexing to obtain a homogeneous solution. • The plate was equilibrated and its contents to room temperature for approximately 30 minutes. 75 μL (equal to the half volume of culture medium present in each well) CellTiter-Glo • Reagent was added in each well. Plates were covered with aluminum foil to protect from light. • The contents were mixed for 2 minutes on an orbital shaker to induce cell lysis. • The plate was incubated at room temperature for 20 minutes to stabilize luminescent signal. • Record luminescence on the 2104 EnVision plate reader.
Inhibition rate (IR) of the tested compounds was determined by the following formula: IR (%)=(1−(RLU compound−RLU day0)/(RLU control−RLU day0))*100%. The inhibitions of different dose of compound were calculated in Excel file, and then were used to plot inhibition curves and evaluate related parameters, such as Min (%), Max (%) and GI50. The data were interpreted by GraphPad Prism.

[2] = inhibition rate, 6 days, Compound (I) from 10 μM, temozolomide from 100 μM, 3-fold, 9 points

Question: Which “Half-life in brain versus plasma” value ([1]; in vivo animal models, oral administration) does the source give for CC(C)N1CCOc2c(F)cc(-c3nc(Nc4ccc(C5CCN(C)CC5)cn4)ncc3F)cc21 [Compound (I), 5-fluoro-4-(8-fluoro-4-isopropyl-3,4-dihydro-2H-benzo[b][1,4]oxazin-6-yl)-N-(5-(1-methylpiperidin-4-yl)pyridin-2-yl)pyrimidin-2-amine] here?
Answer: longer half-life in the brain than in the plasma

Question: What about the Kp at 2 h ([1]; male, CD1, mouse, brain, po, 10 mg/kg, mice, single PO 10 mg/kg, 2 h, read-out: Brain:Plasma Ratio, mean (SD)) of the same compound?
Answer: 1.7

Question: What about the Kp at 4 h ([1]; male, CD1, mouse, brain, po, 10 mg/kg, mice, single PO 10 mg/kg, 4 h, read-out: Brain:Plasma Ratio, mean (SD)) of the same compound?
Answer: 2.1

Question: And the Kp at 6 h ([1]; male, CD1, mouse, brain, po, 10 mg/kg, mice, single PO 10 mg/kg, 6 h, read-out: Brain:Plasma Ratio, mean (SD))?
Answer: 1.9

Question: What about the Kp at 12 h ([1]; male, CD1, mouse, brain, po, 10 mg/kg, mice, single PO 10 mg/kg, 12 h, read-out: Brain:Plasma Ratio, mean (SD)) of the same compound?
Answer: 3.3

Question: And the Kp at 12 h ([1]; male, CD1, mouse, brain, po, 10 mg/kg, mice, single PO 10 mg/kg, at 2, 4, 6, and 12 hours post-dose, read-out: Brain-to-plasma concentration ratio)?
Answer: > 1.5

Question: And the concentration at 2 h ([1]; male, CD1, mouse, brain, mice, single PO 10 mg/kg, 2 h, read-out: Brain Conc)?
Answer: 309 ng/mL

Question: And the concentration at 4 h ([1]; male, CD1, mouse, brain, mice, single PO 10 mg/kg, 4 h, read-out: Brain Conc)?
Answer: 436 ng/mL

Question: What about the concentration at 6 h ([1]; male, CD1, mouse, brain, mice, single PO 10 mg/kg, 6 h, read-out: Brain Conc) of the same compound?
Answer: 464 ng/mL

Question: And the concentration at 12 h ([1]; male, CD1, mouse, brain, mice, single PO 10 mg/kg, 12 h, read-out: Brain Conc)?
Answer: 345 ng/mL

Question: And the concentration at 2 h ([1]; male, CD1, mouse, plasma, mice, single PO 10 mg/kg, 2 h, read-out: Plasma Conc)?
Answer: 187 ng/mL

Question: What about the concentration at 4 h ([1]; male, CD1, mouse, plasma, mice, single PO 10 mg/kg, 4 h, read-out: Plasma Conc) of the same compound?
Answer: 209 ng/mL

Question: And the concentration at 6 h ([1]; male, CD1, mouse, plasma, mice, single PO 10 mg/kg, 6 h, read-out: Plasma Conc)?
Answer: 247 ng/mL

Question: And the concentration at 12 h ([1]; male, CD1, mouse, plasma, mice, single PO 10 mg/kg, 12 h, read-out: Plasma Conc)?
Answer: 105 ng/mL

Question: What about the GI50 (NCI-H460-luc; NCI-H460-Luc, 144 h, 6 days incubation, read-out: Absolute GI50) of the same compound?
Answer: 228 nM

Question: What about the “Max (%)” value (NCI-H460-luc; [2]) of the same compound?
Answer: 101.1%

Question: And the “Min (%)” value (NCI-H460-luc; [2])?
Answer: 1.9%
